Experimental findings from patent EP4710775A1, “COMPOSITION FOR PROMOTING CHILD DEVELOPMENT” (Meiji Holdings Co., Ltd., priority 2023, dated 2024) are described below.

Common to all, as to format: in vivo, mouse (C57BL/6J)
Experiment [1] in a line: Measurement of grip strength (forelimb) after weaning in mice given NMN in infancy. The note with it: three weeks after weaning; males and females combined, n = 20 per group; corrected by body weight; NMN orally gavaged days 3 to 21 after birth (500 mg/kg BW from day 14); vs control group, p < 0.05. The procedure: (§1) β-Nicotinamide mononucleotide (NMN) to be administered to mice was dissolved at a concentration of 100 mg/mL in distilled water and then used for administration.
(§2) Ten female C57BL/6J lines at day 13 of gestation were purchased. The mice were individually raised in a breeding room at a room temperature of 22 ± 2°C, humidity of 55 ± 15%, light period of 7:00 to 19:00, and dark period of 19:00 to 7:00 until the birth of the pups, and after the birth, group breeding was performed with the pups until weaning, and the born mouse pups were used for the test. […]
(§3) The body weights of all the mouse pups were measured on the day of weaning, and the pups were divided into a total of four groups: a control group and an NMN group for males and a control group and an NMN group also for females (n = 10 for each group), so that the average values of the body weights were equal. […]
Three weeks after weaning, the grip strength (forelimb only) of all the individuals was measured using Grip Strength Meter for Rats & Mice (MK-380CM/F, manufactured by Muromachi Kikai Co., Ltd.). The measurement was performed 10 times per individual, and the maximum value was recorded. […]

A short description of experiment [2]: Open field test: amount of voluntary activity and average moving speed after weaning. The note with it: two weeks after weaning, 10 minutes, males and females combined, n = 20 per group, NMN orally days 3 to 21 after birth, vs control group, p < 0.05. The procedure: as §1, §2, §3
Two weeks after weaning, an open field test was performed on all the individuals to measure the amount of voluntary activity and the average moving speed. […] From the obtained moving image, the amount of voluntary activity (total movement distance) and the average moving speed (average of moving speed excluding immobility state) were calculated using dedicated analysis software (SMART3.0: manufactured by Panlab).

Experiment [3] can be described thus: Measurement of plasma triglyceride concentration after weaning (Triglyceride E-test Wako). The conditions noted are these: two weeks after weaning, males only, NMN n = 5, control n = 7, NMN orally days 3 to 21 after birth, vs control group. The procedure:
as §1
(§4) Ten female C57BL/6J lines at day 13 of gestation were purchased. The mice were individually raised in a breeding room at a room temperature of 22 ± 2°C, humidity of 55 ± 15%, light period of 7:00 to 19:00, and dark period of 19:00 to 7:00 until the birth of the pups, and after the birth, group breeding was performed with the pups until weaning, and the born mouse pups were used for the test.
(§5) All the mouse pups were subjected to sex determination on day 3 after birth, and were divided into distilled water administration (later control group) and NMN administration (later NMN group) so that the number of males and females was approximately half in the littermates. […]
(§6) The body weights of the mouse pups were measured on the day of weaning, and the pups were divided into a total of two groups: a control group (n = 7) and an NMN group (n = 5) only for males. […]
Using the separated plasma, the triglyceride concentration was measured by a kit (Triglyceride E-test Wako: No. 432-40201).

Experiment [4] is described as follows: Measurement of blood glucose level in plasma after weaning (Glucose II-test Wako). The conditions noted are these: two weeks after weaning, males only, NMN n = 5, control n = 7, NMN orally days 3 to 21 after birth, vs control group, p < 0.01. The procedure: as §1, §4, §5, §6
Using the separated plasma, the blood glucose concentration (blood glucose level) was measured by a kit (Glucose II-test Wako: No. 439-90901).

Experiment [5] can be described thus: White fat weight measurement (white adipose tissue around the reproductive organ) after weaning. The conditions noted are these: two weeks after weaning; relative weight corrected by body weight; males and females combined, n = 10 per group; NMN orally days 3 to 21 after birth; vs control group, p < 0.01. The procedure: as §1, §4, §5
The body weights of all the mouse pups were measured on the day of weaning, and the pups were divided into a total of four groups: a control group (n = 7) and an NMN group (n = 5) for males, and a control group (n = 3) and an NMN group (n = 5) also for females. After weaning, the mice were normally bred for 2 weeks and dissected, the white adipose tissue around the reproductive organ was extracted, and the weight thereof was measured. […]

Take `NC(=O)c1ccc[n+]([C@@H]2O[C@H](COP(=O)([O-])O)[C@@H](O)[C@H]2O)c1` [NMN, β-Nicotinamide mononucleotide]: the grip strength entry in experiment [1] was “high as compared to that in the control group”. Besides, the average moving speed entry in experiment [2] (excluding immobility state) is reported as “high as compared to those in the control group”. Moreover, the “amount of voluntary activity” value in experiment [2] (total movement distance) is recorded as “high as compared to those in the control group”. Further, the blood triglyceride concentration result in experiment [3] was “tended to be low as compared to that in the control group”. Besides, the blood glucose levels result in experiment [4] is given as “significantly low as compared to those in the control group”. For the same compound, in experiment [5], the white fat weight entry is reported as “low as compared to that in the control group”.
